Results reported in patent US7563921B2, “2-cyano-3(halo)alkoxy-benzenesulfonamide compounds for combating animal pests” (BASF Aktiengesellschaft, priority 2004, dated 2009).

How the values were obtained:
[1] = tested on: Bean Aphid (Aphis fabae); assay: Bean Aphid plant dip test on nasturtium plants; format: in vivo; settings: 72 h, nasturtium plants dipped, aphid mortality after 3 days, read-out: mortality in comparison with untreated controls
Text: (§1) The active compounds were formulated in 50:50 acetone:water and 100 ppm Kinetic® surfactant.
Nasturtium plants grown in Metro mix in the 1st leaf-pair stage (variety ‘Mixed Jewel’) were infested with approximately 20-30 laboratory-reared aphids by placing infested cut plants on top of the test plants. The cut plants were removed after 24 hr. Each plant was dipped into the test solution to provide complete coverage of the foliage, stem, protruding seed surface and surrounding cube surface and allowed to dry in the fume hood. The treated plants were kept at about 25° C. with continuous fluorescent light. Aphid mortality is determined after 3 days.

[2] = tested on: Green Peach Aphid (Myzus persicae); assay: Green Peach Aphid foliar dip test on pepper plants; format: in vivo; settings: 120 h, pepper plant leaves dipped, aphid mortality after 5 days, read-out: mortality in comparison with untreated controls
Text: Green Peach Aphid (Myzus persicae)
as §1
Pepper plants in the 2nd leaf-pair stage (variety ‘California Wonder’) were infested with approximately 40 laboratory-reared aphids by placing infested leaf sections on top of the test plants. The leaf sections were removed after 24 hr. The leaves of the intact plants were dipped into gradient solutions of the test compound and allowed to dry. Test plants were maintained under fluorescent light (24 hour photoperiod) at about 25° C. and 20-40% relative humidity. Aphid mortality on the treated plants, relative to mortality on check plants, was determined after 5 days.

[3] = tested on: Cotton Aphid (Aphis gossypii); assay: Cotton Aphid cotyledon dip test on cotton plants; format: in vivo; settings: 120 h, cotton cotyledons dipped, mortality counts after 5 days, read-out: mortality in comparison with untreated controls
Text: Cotton Aphid (Aphis gossypii)
as §1
Cotton plants in the cotyledon stage (variety ‘Delta Pine’, one plant per pot) were infested by placing a heavily infested leaf from the main colony on top of each cotyledons. The aphids were allowed to transfer to the host plant overnight, and the leaf used to transfer the aphids was removed. The cotyledons were dipped in the test solution and allowed to dry. After 5 days, mortality counts were made.

[4] = tested on: cotton aphids (Aphis gossypil); assay: Cotton seed treatment, control of foliar aphids; format: in vivo, Aphis gossypii; settings: live aphids counted four days after infestation, versus solvent blank controls
Method: Experimental compound no. 1 (N,N-Dimethyl-2-cyano-3-difluoromethoxyphenylsulfonamide) was evaluated to determine their insecticidal efficacy for control of foliar aphids when applied as seed treatment.
Experimental compound no. 1 was formulated by dissolving 10.5 mg technical material in 45 μl acetone then adding 255 μl 0.05% aqueous TWEEN 20 (polyoxyethylene (20) sorbitan monolaurate).
Twenty-five cotton seeds (variety Sure-Grow 747) were placed in a 20-ml glass vial and then 150 μl of the compound formulation were pipetted onto the side of the vial just above the seeds. Vials were vortexed for 30 seconds to rapidly spin the seeds within the vial to apply the compound to the seeds. Treated seeds were then air-dried. […]
Twenty-four cotton seeds were planted in Metro Mix potting mix in twelve 7.6-cm-square pots, 2 seeds per pot. Crop selectivity was determined by comparing seedling emergence and recording any foliar and shoot symptoms.
Seedling plants were thinned to one plant per pot. […] The exact number of aphids transferred to each plant was recorded.
Four days after infestation, live aphids on each plant were counted. The aphid population increase for each control plant was calculated by dividing the final aphid population by the initial population. The median aphid population increase on the solvent blank controls was then calculated. […]

Row | Structure (SMILES) | mortality at 300 ppm [1] | mortality at 300 ppm [2] | mortality at 300 ppm [3] | reduction of the aphid population [4]
1 | COc1cccc(S(=O)(=O)N(C)C)c1C#N [Compound 2, N,N-Dimethyl-2-cyano-3-methoxyphenylsulfonamide] | > 85% | > 85% | > 85% | 
2 | CN(C)S(=O)(=O)c1cccc(OC(F)F)c1C#N [Compound 1, N,N-Dimethyl-2-cyano-3-difluoromethoxyphenylsulfonamide] | > 85% | > 85% | > 85% | significant reduction of the aphid population
